Data reported in patent publication US6274715A, “Tricyclic erythromycin derivatives” (priority 1997, dated 2001).
In brackets after ≈: the same amount, converted by molar mass.

Columns and labels:
[1] = tested on: STAPHYLOCOCCUS AUREUS ATCC 6538P; assay: In vitro antibacterial activity, MIC, BHI agar dilution; type: cell-based; conditions: S. aureus ATCC 6538P, 35-37° C., 20 to 24 hours, unit assumed
[2] = tested on: STAPHYLOCOCCUS AUREUS A5177; assay: as above; type: cell-based; conditions: S. aureus A5177, unit assumed
[3] = tested on: STAPHYLOCOCCUS AUREUS A-5278; assay: as above; type: cell-based; conditions: S. aureus A-5278, unit assumed
[4] = tested on: STAPHYLOCOCCUS AUREUS CMX 642A; assay: as above; type: cell-based; conditions: S. aureus CMX 642A, unit assumed
[5] = tested on: STAPHYLOCOCCUS AUREUS NCTC10649M; assay: as above; type: cell-based; conditions: S. aureus NCTC10649M, unit assumed
[6] = tested on: STAPHYLOCOCCUS AUREUS CMX 553; assay: as above; type: cell-based; conditions: S. aureus CMX 553, unit assumed
[7] = tested on: STAPHYLOCOCCUS AUREUS 1775; assay: as above; type: cell-based; conditions: S. aureus 1775, unit assumed
[8] = tested on: STAPHYLOCOCCUS EPIDERMIDIS 3519; type: cell-based; conditions: S. epidermidis 3519; BHI agar; unit assumed
EN[…] ATCC 8043 = assay: In vitro antibacterial activity, MIC, BHI agar dilution; type: cell-based; conditions: E. faecium ATCC 8043, unit assumed
Summary of the method: (§1)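 MIC was read visually as the lowest drug level with no growth, a slight haze or sparsely isolated colonies relative to a compound-free growth control. Organisms were spotted at 1:100 dilution (1:10 for slow-growing strains) onto Brain Heart Infusion agar containing serial compound dilutions and incubated 20 to 24 hours at 35-37° C.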

M[…] ATCC 4698 = assay: as above; type: cell-based; conditions: M. luteus ATCC 4698, unit assumed
Summary of the method: as §1

M[…] ATCC 9341 = assay: as above; type: cell-based; conditions: M. luteus ATCC 9341, unit assumed
Summary of the method: as §1

STR[…] 508 = assay: as above; type: cell-based; conditions: S. agalactiae CMX 508, unit assumed
Summary of the method: as §1

[9] = tested on: STREPTOCOCCUS BOVIS A-5169; assay: as above; type: cell-based; conditions: S. bovis A-5169, unit assumed
[10] = tested on: STREPTOCOCCUS PYOGENES EES61; assay: as above; type: cell-based; conditions: S. pyogenes EES61, unit assumed
[11] = tested on: STREPTOCOCCUS PYOGENES 930; assay: as above; type: cell-based; conditions: S. pyogenes 930, unit assumed
[12] = tested on: STREPTOCOCCUS PYOGENES PIU 2548; assay: as above; type: cell-based; conditions: S. pyogenes PIU 2548, unit assumed
ESCHERICHIA COLI JUHL = type: cell-based; conditions: E. coli JUHL; BHI agar; unit assumed
ESCHERICHIA COLI SS = assay: In vitro antibacterial activity, MIC, BHI agar dilution; type: cell-based; conditions: E. coli SS, unit assumed
ESCHERICHIA COLI DC-2 = assay: as above; type: cell-based; conditions: E. coli DC-2, unit assumed
ESCHERICHIA COLI H560 = assay: as above; type: cell-based; conditions: E. coli H560, unit assumed
ESCHERICHIA COLI KNK 437 = type: cell-based; conditions: E. coli KNK 437; BHI agar; unit assumed
[13] = tested on: ENTEROBACTER AEROGENES ATCC 13048; assay: In vitro antibacterial activity, MIC, BHI agar dilution; type: cell-based; conditions: E. aerogenes ATCC 13048, unit assumed
[14] = tested on: KLEBSIELLA PNEUMONIAE ATCC 8045; assay: as above; type: cell-based; conditions: K. pneumoniae ATCC 8045, unit assumed
[15] = tested on: PROVIDENCIA STUARTII CMX 640; type: cell-based; conditions: P. stuartii CMX 640; BHI agar; unit assumed
[16] = tested on: PSEUDOMONAS AERUGINOSA BMH10; assay: In vitro antibacterial activity, MIC, BHI agar dilution; type: cell-based; conditions: P. aeruginosa BMH10, unit assumed
[17] = tested on: PSEUDOMONAS AERUGINOSA 5007; assay: as above; type: cell-based; conditions: P. aeruginosa 5007, unit assumed
[18] = tested on: PSEUDOMONAS AERUGINOSA K799/WT; assay: as above; type: cell-based; conditions: P. aeruginosa K799/WT, unit assumed
[19] = tested on: PSEUDOMONAS AERUGINOSA K799/61; assay: as above; type: cell-based; conditions: P. aeruginosa K799/61, unit assumed
PSEUDOMONAS CEPACIA 296I = assay: as above; type: cell-based; conditions: P. cepacia 296I, unit assumed
[20] = tested on: PSEUDOMONAS AERUGINOSA DPHD-5263; assay: as above; type: cell-based; conditions: P. aeruginosa DPHD-5263, unit assumed
[21] = tested on: PSEUDOMONAS AERUGINOSA DPHD-2862; assay: as above; type: cell-based; conditions: P. aeruginosa DPHD-2862, unit assumed
CANDIDA ALBICANS CCH 442 = assay: as above; type: cell-based; conditions: C. albicans CCH 442, unit assumed
[22] = tested on: MYCOBACTERIUM SMEGMATIS ATCC 114; assay: as above; type: cell-based; conditions: M. smegmatis ATCC 114, unit assumed
H. Influenza Dill AMP R = assay: In vitro antibacterial activity against H. Influenza Dill AMP R, MIC; type: cell-based; conditions: separate assay, unit assumed
Summary of the method: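 Agar dilution in Brain Heart Infusion agar, twelve successive compound dilutions, inoculated by Steers replicator with 1:100 (1:10 for slow growers) culture dilutions. Incubation 35-37° C. for 20 to 24 hours; MIC is lowest concentration giving no growth, slight haze or sparse colonies versus drug-free control.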

Grarn-negative bacteria = conditions: background statement; cited from earlier work
[23] = tested on: ACINETOBACTER CALCOACETICUS CMX 669; assay: In vitro antibacterial activity, MIC, BHI agar dilution; type: cell-based; conditions: A. calcoaceticus CMX 669, unit assumed

Row | SMILES | MIC [1] [µg/mL] | MIC [2] [µg/mL] | MIC [3] [µg/mL] | MIC [4] [µg/mL] | MIC [5] [µg/mL] | MIC [6] [µg/mL] | MIC [7] [µg/mL] | MIC [8] [µg/mL] | MIC (EN[…] ATCC 8043) [µg/mL] | MIC (M[…] ATCC 4698) [µg/mL] | MIC (M[…] ATCC 9341) [µg/mL] | MIC (STR[…] 508) [µg/mL] | MIC [9] [µg/mL] | MIC [10] [µg/mL] | MIC [11] [µg/mL] | MIC [12] [µg/mL] | MIC (ESCHERICHIA COLI JUHL) [µg/mL] | MIC (ESCHERICHIA COLI SS) [µg/mL] | MIC (ESCHERICHIA COLI DC-2) [µg/mL] | MIC (ESCHERICHIA COLI H560) [µg/mL] | other results
1 | CC[C@H]1OC(=O)[C@H](C)[C@@H](O[C@H]2C[C@@](C)(OC)[C@@H](O)[C@H](C)O2)[C@H](C)[C@@H](O[C@@H]2O[C@H](C)C[C@H](N(C)C)[C@H]2O)[C@](C)(O)C[C@@H](C)C(=O)[C@H](C)[C@@H](O)[C@]1(C)O [Ery A, Erythromycin A, reference compound] | 0.2 (≈ 0.273 µM) | 6.2 (≈ 8.45 µM) | > 100 | 0.39 (≈ 0.531 µM) | 0.2 (≈ 0.273 µM) | 0.2 (≈ 0.273 µM) | > 100 | 0.39 (≈ 0.531 µM) | 0.05 (≈ 0.0681 µM) | 0.2 (≈ 0.273 µM) | 0.02 (≈ 0.0273 µM) | 0.05 (≈ 0.0681 µM) | 0.05 (≈ 0.0681 µM) | 0.05 (≈ 0.0681 µM) | > 100 | 6.2 (≈ 8.45 µM) | 100 (≈ 136 µM) | 0.2 (≈ 0.273 µM) | > 100 | 25 (≈ 34.1 µM) | MIC (ESCHERICHIA COLI KNK 437): 50 µg/mL (≈ 68.1 µM); MIC [13]: 100 µg/mL (≈ 136 µM); MIC [14]: 100 µg/mL (≈ 136 µM); MIC [15]: > 100 µg/mL; MIC [16]: > 100 µg/mL; MIC [17]: > 100 µg/mL; MIC [18]: 50 µg/mL (≈ 68.1 µM); MIC [19]: 0.78 µg/mL (≈ 1.06 µM); MIC (PSEUDOMONAS CEPACIA 296I): > 100 µg/mL; MIC [20]: > 100 µg/mL; MIC [21]: > 100 µg/mL; MIC (CANDIDA ALBICANS CCH 442): > 100 µg/mL; MIC [22]: 0.02 µg/mL (≈ 0.0273 µM); MIC (H. Influenza Dill AMP R): 4 µg/mL (≈ 5.45 µM); activity against Gram-negative bacteria (Grarn-negative bacteria): only weak activity
2 | CCC1OC(=O)C(C)C(=O)C(C)C(OC2OC(C)CC(N(C)C)C2O)C(C)(OC)CC(C)C2=NCC(CSc3ccccc3)(CN(C)C)N3C(=O)OC1(C)C3C2C (stereo not shown) [Example 135] | 1.56 (≈ 1.91 µM) | 1.56 (≈ 1.91 µM) | > 100 | 3.1 (≈ 3.79 µM) | 3.1 (≈ 3.79 µM) | 3.1 (≈ 3.79 µM) | > 100 | 3.1 (≈ 3.79 µM) | 0.39 (≈ 0.477 µM) | 1.56 (≈ 1.91 µM) | 0.2 (≈ 0.245 µM) | 0.2 (≈ 0.245 µM) | 0.1 (≈ 0.122 µM) | 0.2 (≈ 0.245 µM) | > 100 | 1.56 (≈ 1.91 µM) | > 100 | 1.56 (≈ 1.91 µM) | > 100 | > 100 | MIC (ESCHERICHIA COLI KNK 437): > 100 µg/mL; MIC [13]: > 100 µg/mL; MIC [14]: > 100 µg/mL; MIC [15]: > 100 µg/mL; MIC [16]: > 100 µg/mL; MIC [17]: > 100 µg/mL; MIC [18]: > 100 µg/mL; MIC [19]: 6.2 µg/mL (≈ 7.59 µM); MIC (PSEUDOMONAS CEPACIA 296I): > 100 µg/mL; MIC [23]: > 100 µg/mL; MIC [20]: > 100 µg/mL; MIC [21]: > 100 µg/mL; MIC (CANDIDA ALBICANS CCH 442): > 100 µg/mL; MIC [22]: 1.56 µg/mL (≈ 1.91 µM); MIC (H. Influenza Dill AMP R): 64 µg/mL (≈ 78.3 µM)
